Results: patent US11173446B2, “Process for removal of acid gases from a fluid stream” (BASF SE, priority 2017, dated 2021)

How the values were obtained:
[1] = Volatility of 30% by weight aqueous amine solutions (Example 4); assay type: physicochemical; settings: 30% by weight aqueous solutions, 50° C.
[2] = pKa of the amino groups by titration with hydrochloric acid (Example 5); assay type: physicochemical; settings: 20° C.
Description: An aqueous amine solution (0.005 mol/L) was titrated with hydrochloric acid (0.1 mol/L).

CC(C)(C)NCC(O)CO (centres unmarked) [TBAPD, 3-(tert-butylamino)propane-1,2-diol]
volatility, comparison in words [1]: lower volatility compared to the M3ETB, TBAEE and MDEA
pKA value, comparison in words [2]: greater than that of MDEA
